Laboratory results taken from paper PMC7385626 (Scientific Reports, 2020).
Several values for one entry are separate records, joined by “and”; a condition that tells them apart may be missing. Equal entries are not always repeated.

Assays:
[1] = tested on: HeLa, HT29, C6 and Vero cells; test: BrdU Cell Proliferation Assay, range over the cell lines; assay type: cell-based; conditions: BrdU assay
Excerpt: (§1) The antiproliferative activities of Ag(I) molecules and the starting molecules of the parent molecules, N-bishydeten and [Ag(CN)2]^− compound, on cells, were monitored utilizing by the BrdU Cell Proliferation Assay (BCPA) (Fig. 6).
(§2) The antiproliferative activity of the 2, 3, 4, [Ag(CN)2]^− and 5FU against various cell lines (HeLa ATCC CCL-2, C6 cells ATCC CCL-107, HT29 ATCC HTB-38, and Vero ATCC CCL-81) were preserved and maintained in Dulbecco’s modified eagle’s medium, supplemented with %2 antibiotic (Streptomycin-Penicillin) solution and 10% fetal bovine serum.
(§3) The cell suspension including 5×10^3 cells in 100 µL was supplied into the well cell plates (96-well cell). The therapies of these cells with 2, 3, 4 and [Ag(CN)2]^− in DMSO (max 0.1% DMSO) and 5-Florouracil (5 FU) molecule in DMSO (max 0.1% DMSO) separately at concentration 0.25, 0.50, 1.00, 1.50, 2.00, 2.50, 3.75, and 5.00 µg/mL were carried out. The last volume was adapted to 200 µL by mixture and DMEM and also incubated for 24 h at 37°C with 5% CO2. The antiproliferative activities of the 2, 3, 4 and [Ag(CN)2]^− were determined with using BrdU Cell proliferation ELISA Kit conforming to manufacturer’s assay.
(§4) IC50 values the concentration of a factor which required for other method of in vitro.

HeLa = test: BrdU Cell Proliferation Assay (BCPA); assay type: cell-based; conditions: BrdU ELISA, 24 h, mean ± SD of three experiments
Excerpt: as §1, §2, §3, §4

Vero = test: BrdU Cell Proliferation Assay (BCPA); assay type: cell-based; conditions: BrdU ELISA, 24 h, normal cell line, mean ± SD of three experiments
Excerpt: as §1, §2, §3, §4

C6 = test: BrdU Cell Proliferation Assay (BCPA); assay type: cell-based; conditions: BrdU ELISA, 24 h, mean ± SD of three experiments
Excerpt: as §1, §2, §3, §4

HT29 = test: BrdU Cell Proliferation Assay (BCPA); assay type: cell-based, human; conditions: BrdU ELISA, 24 h, mean ± SD of three experiments
Excerpt: as §1, §2, §3, §4

CT-DNA = conditions: literature comparison; ref [59],[60]; cited from earlier work
HT29 cells = conditions: human
Excerpt: (§5) LDH activities were measurement at 492-630 nm using a microplate reader. The percentage cytotoxicity was find with using the equation, […], where experimental value is the test-molecule treated cells, and high control is Triton X-100 treated cells, and low standard or control (spontaneous LDH enzyme) is the untreated cells.

in vitro = conditions: human (HT-29, HeLa), rat (C6), African green monkey (Vero)
Excerpt: as §5

St. pyogenez ATCC176 [2] = test: Disc diffusion assay; assay type: cell-based, Steptococcus Pyogerez
Procedure: (§6) Therefore, the pathogen bacterial flora and the opportunistic agents may be taken into consideration both in the management of cancer patients and in individual susceptibility to cancer. Indeed, dual acting factors with antimicrobial and antiproliferative potentials can result in improved therapeutic efficacy for cancer cell patients or reduced cancer predisposition. […]. In this study, 10 microbial cultures of this part, belonging to ten types of bacterial were used. The culture was grown in Mueller–Hinton Broth (Merck) for all the bacterial strains at 36 °C. Antimicrobial test was carried out by using disc-diffusion assay utilizing 100 µL of suspension with 10^8 CFU/mL of bacteria and 10^6 CFU/mL of yeast spread on Nutrient Agar and Potato Dextrose Agar, respectively. Also, the blank disc (Oxoid = 6 mm in diameter) was impregnated with 20 µL of each substance (105 µg/disc) and placed on the inoculated agar. Negative controls ([…]) were prepared using the same solvent (water) employed to dissolve each substance. […]. The inoculated plate was incubated at 36 °C for clinical bacterial strains. Antimicrobial activities were evaluated by obtaining the zone of inhibitory effect against the test organisms.

[3] = tested on: bacterial strains (four gram-positive, five gram-negative); test: Serial microdilution assay (MIC), range over the bacterial strains; assay type: cell-based
Procedure: (§7) […]. […] Four types of gram-positive bacterial strains (St. pyogenez, B. subtilis, B. cereus, S. aureus) and five types of the gram-negative (S. enteridis, E. aerogenes, P. aeruginosa, E. coli, and S. gallinarum) were sensitive to 4 and 1. […]. The minimal inhibitory concentration value was studied for the microorganism cells, which evaluated to sensitive the substances and they tested in the disc-diffusion method. Inoculate of microorganism was prepared utilizing 12 h suspensions and broth cultures were adjusted to 0.5 McFarland turbidity standard. Each substance was dissolved in 10% dimethyl sulfoxide which diluted to the highest concentration (1000 µg/mL) for testing. […]. Also, prepared suspensions for standard microorganisms were added to each dilution in a 1:1 ratio. Growth act of microorganism cells was determined visually after incubation at 36 °C. The minimum concentration was no visible growth which was taken as the MIC.

B. subtilis ATCC6633 [4] = test: Disc diffusion assay; assay type: cell-based, Bacillus Subtilis
Procedure: as §6

BSA = BSA (Bos taurus, UniProt P02769); test: UV–Visible absorption titration, BSA binding constant; design: species or system Bovine
Excerpt: UV–Visible absorption spectroscopy technique was also used to study interactions between BSA and 1–4. […] The some results of [BSA]/(εa − εf) = [BSA]/(εb − εf) + 1/[Kb(εb − εf)] in Fig. 9, used and also obtained. The binding constants for the 1–4 were found as 2.4 ± 0.22 × 10^4 M^−1, 4.3 ± 0.29 × 10^4 M^−1, 3.4 ± 0.23 × 10^4 M^−1 and 4.8 ± 0.29 × 10^4 M^−1, respectively. In Fig. 9, the increase in BSA concentrations leads to a change in the absorption of the complexes resulting in hypochromism for 1 and 3 and hyperchromism for 2 and 4.
To obtain the interaction act of the molecules with calf thymus DNA and also to determine the binding constants (Kb) UV–Visible absorption spectroscopy method was utilized. Indeed, 2.5 mg calf thymus DNA in this part was dissolved in Tris–HCl buffer and stabile pending seven days in the refrigerator. The concentration level of calf thymus DNA was calculated spectrophotometrically assay at 260 nm. This method was done according to previous studies.

St. pyogenez ATCC176 [5] = test: Serial microdilution assay (MIC); assay type: cell-based, Steptococcus Pyogerez
Procedure: as §7

S. aureus ATCC29213 [6] = test: Serial microdilution assay (MIC); assay type: cell-based, Staphylococcus aureus
Procedure: as §7

E. coli 111 [7] = test: Serial microdilution assay (MIC); assay type: cell-based, Escherichia coli
Procedure: as §7

E. aerogenes ATCC2924 = test: Serial microdilution assay (MIC); assay type: cell-based, Enterobacter Aerogenes
Procedure: as §7

S. enteridis ATCC13076 [8] = test: Disc diffusion assay; assay type: cell-based, Salmonella Enteritidis
Procedure: as §6

S. gallinarum [9] = test: Serial microdilution assay (MIC); assay type: cell-based, Salmonella Gallinarum
Procedure: as §7

S. gallinarum [10] = test: Disc diffusion assay; assay type: cell-based, Salmonella Gallinarum
Procedure: as §6

P. aeruginosa ATCC9027 = test: Serial microdilution assay (MIC); assay type: cell-based, Pseudomonas Aureginosa
Procedure: as §7

E. aerogenes 2924 = test: Disc diffusion assay; assay type: cell-based, Enterobacter Aerogenes
Procedure: as §6

B. cereus DSM 4312 [11] = test: Serial microdilution assay (MIC); assay type: cell-based, Bacillus Cereus
Procedure: as §7

B. cereus DSM 4312 [12] = test: Disc diffusion assay; assay type: cell-based, Bacillus Cereus
Procedure: as §6

B. subtilis ATCC6633 [13] = test: Serial microdilution assay (MIC); assay type: cell-based, Bacillus Subtilis
Procedure: as §7

S. aureus ATCC29213 [14] = test: Disc diffusion assay; assay type: cell-based, Staphylococcus aureus
Procedure: as §6

E. coli 111 [15] = test: Disc diffusion assay; assay type: cell-based, Escherichia coli
Procedure: as §6

S. enteridis ATCC13076 [16] = test: Serial microdilution assay (MIC); assay type: cell-based, Salmonella Enteritidis
Procedure: as §7

NCCN(CCO)CCO [N-bishydeten, N, N-bis (2-hydroxyethyl) -ethylenediamine, reference compound]
antiproliferative effect (in words) ([1]; same administrative dose, data not shown): no antiproliferative effects

N.N.[Cl][Pt][Cl] [Cisplatin, cisplatin, reference compound]
IC50 ([1]; HeLa, HT29, C6, Vero): 153 to 235 µM
IC50 (HeLa): 230 ± 15 µM
IC50 (Vero): 235 ± 19 µM
IC50 (C6): 208 ± 23 µM
IC50 (HT29): 153 ± 14 µM

O=c1[nH]cc(F)c(=O)[nH]1 [5FU, 5-fluorouracil, reference compound]
binding constant with DNA (reported) (CT-DNA): 97000 M⁻¹
cytotoxicity against HT29 cells (LDH) (HT29 cells): 9–11%
cytotoxicity (in vitro): 15 to 25%
IC50 (HeLa; Homo sapiens, HeLa): 276 ± 17 µM
IC50 (Vero; Chlorocebus sabaeus, Vero): 258 ± 21 µM
IC50 (C6; Rattus norvegicus, C6): 217 ± 19 µM
IC50 (HT29; Homo sapiens, HT-29): 258 ± 21 µM

[Ni(N-bishydeten)Ag3(CN)5] [Complex 1]
inhibition zones, St. pyogenez ATCC176 (St. pyogenez ATCC176 [2]): 15 ± 0.0 mm
MIC, joint range for 4 and 1 over the strains [3]: 15.62 to 125 µg/mL
inhibition zones, B. subtilis ATCC6633 (B. subtilis ATCC6633 [4]): 14 ± 1.53 mm
binding constant with BSA (BSA): 2.4 ± 0.22 × 10^4 M^−1 and 2.4 x 10^4
MIC, St. pyogenez (St. pyogenez ATCC176 [5]): 15.62 µg/mL
Minimum-inhibitory concentrations (MIC), St. pyogenez ATCC176 (St. pyogenez ATCC176 [5]): 15.62 ± 9.02 µg/mL
Minimum-inhibitory concentrations (MIC), S. aureus ATCC29213 (S. aureus ATCC29213 [6]): 62.50 ± 36.08 µg/mL
Minimum-inhibitory concentrations (MIC), E. coli 111 (E. coli 111 [7]): 62.50 ± 0.0 µg/mL
MIC, E. aerogenes (E. aerogenes ATCC2924): 15.62 µg/mL
Minimum-inhibitory concentrations (MIC), E. aerogenes ATCC2924 (E. aerogenes ATCC2924): 15.62 ± 0.0 µg/mL
inhibition zones, S. enteridis ATCC13076 (S. enteridis ATCC13076 [8]): 18 ± 0.58 mm
MIC, S. gallinarum (S. gallinarum [9]): 31.25 µg/mL
Minimum-inhibitory concentrations (MIC), S. gallinarum (S. gallinarum [9]): 31.25 ± 0.0 µg/mL
inhibition zones, S. gallinarum (S. gallinarum [10]): 17 ± 0.58 mm
Minimum-inhibitory concentrations (MIC), P. aeruginosa ATCC9027 (P. aeruginosa ATCC9027): 62.50 ± 18.04 µg/mL
inhibition zones, E. aerogenes 2924 (E. aerogenes 2924): 15 ± 1.0 mm
Minimum-inhibitory concentrations (MIC), B. cereus DSM 4312 (B. cereus DSM 4312 [11]): 62.50 ± 18.04 µg/mL
inhibition zones, B. cereus DSM 4312 (B. cereus DSM 4312 [12]): 20 ± 1.0 mm
Minimum-inhibitory concentrations (MIC), B. subtilis ATCC6633 (B. subtilis ATCC6633 [13]): 62.50 ± 0.0 µg/mL
inhibition zones, S. aureus ATCC29213 (S. aureus ATCC29213 [14]): 18 ± 0.58 mm
inhibition zones, E. coli 111 (E. coli 111 [15]): 19 ± 0.58 mm
Minimum-inhibitory concentrations (MIC), S. enteridis ATCC13076 (S. enteridis ATCC13076 [16]): 62.50 ± 17.97 µg/mL
